Measurements from paper PMC7074381, “Investigating the Antiparasitic Potential of the Marine Sesquiterpene Avarone, Its Reduced Form Avarol, and the Novel Semisynthetic Thiazinoquinone Analogue Thiazoavarone” (Marine Drugs, 2020).
Read-outs that look alike come from different tables or passages of the source.

Experiments:
[1] = tested on: L. tropica promastigotes (MHOM/IT/2012/ISS3130); assay: promastigote susceptibility MTT assay, L. tropica; type: cell-based; details: for IC50: Leishmania tropica, promastigote stage, 72 h, MTT, mean ± SD of three experiments; for SIp (L. tropica): SIp = IC50 HMEC-1/IC50 L. tropica promastigotes
Procedure: (§1) Promastigote stage of L. infantum strain MHOM/TN/80/IPT1 and L. tropica (MHOM/IT/2012/ISS3130) were cultured in Schneider’s Drosophila medium (Lonza) supplemented with 10% heat-inactivated fetal calf serum (HyClone) at 24 °C.
(§2) The complete medium used for antileishmanial activity assay was RPMI (EuroClone) supplemented with 10% heat-inactivated fetal calf serum (EuroClone), 20 mM Hepes, and 2 mM L-glutamine. To estimate the 50% inhibitory concentration (IC50), the MTT (3-[4.5-dimethylthiazol-2-yl]-2.5-diphenyltetrazolium bromide) method was used. Compounds were dissolved in DMSO and then diluted with medium to achieve the required concentrations. Drugs were placed in 96-well round-bottom microplates and seven serial dilutions made. Amphotericin B was used as the reference anti-leishmanial drug. Parasites were diluted in complete medium to 5 × 10^6 parasites/mL and 100 μL of the suspension was seeded into the plates, incubated at 24 °C for 72 h and then 20 µL of MTT solution (5 mg/mL) was added into each well for 3 h. The plates were then centrifuged, the supernatants discarded and the resulting pellets dissolved in 100 µL of lysing buffer consisting of 20% (w/v) of a solution of SDS (Sigma), 40% of N,N-dimethylformamide (Merck) in H2O. The absorbance was measured spectrophotometrically at a test wavelength of 550 nm and a reference wavelength of 650 nm. The results are expressed as IC50 which is the dose of compound necessary to inhibit parasite growth by 50%; each IC50 value is the mean ± standard deviation of separate experiments performed in duplicate.

L. infantum amastigotes = assay: intracellular amastigote susceptibility assay in THP-1 macrophages; type: cell-based; details: for IC50: Leishmania infantum, intracellular amastigotes in THP-1 macrophages, 72 h, mean of two experiments in triplicate; for SIa: SIa = IC50 HMEC-1/IC50 L. infantum amastigotes
Procedure: Cells were washed and infected with metacyclic L. infantum promastigotes at a macrophage/promastigote ratio of 1/10 for 24 h. Cell monolayers were then washed and incubated in the presence of test compounds for 72 h. Slides were fixed with methanol and stained with Giemsa. The percentage of infected macrophages in treated and non-treated cells was determined by light microscopy.

[2] = tested on: L. infantum promastigotes (strain MHOM/TN/80/IPT1); assay: promastigote susceptibility MTT assay, L. infantum; type: cell-based; details: for IC50: Leishmania infantum, promastigote stage, 72 h, MTT, mean ± SD of three experiments; for SIp (L. infantum): SIp = IC50 HMEC-1/IC50 L. infantum promastigotes
Procedure: as §1, §2

[3] = tested on: P. falciparum D10 (CQ-sensitive) strain; assay: antiplasmodial pLDH drug susceptibility assay, asexual parasites, D10 strain; type: cell-based; details: for IC50: Plasmodium falciparum, read-out: D10 IC50; for SI D10: SI = IC50 HMEC-1/IC50 P. falciparum D10
Procedure: (§3) P. falciparum cultures were carried out according to Trager and Jensen with slight modifications. The CQ-sensitive strain D10 and the CQ-resistant strain W2 were maintained at 5% hematocrit (human type A-positive red blood cells) in RPMI 1640 (EuroClone, Celbio) medium with the addition of 1% AlbuMax (Invitrogen, Milan, Italy), 0.01% hypoxanthine, 20 mM Hepes, and 2 mM glutamine at 37 °C in a standard gas mixture (1% O2, 5% CO2, and 94% N2). […] Drugs were placed in 96-well flat-bottomed microplates and serial dilutions made. Asynchronous cultures with parasitaemia of 1%–1.5% and 1% final hematocrit were aliquoted into the plates and incubated for 72 h at 37 °C. Parasite growth was determined spectrophotometrically (OD650) by measuring the activity of the parasite lactate dehydrogenase (pLDH), according to a modified version of the method of Makler in control and drug-treated cultures. The antiplasmodial activity is expressed as 50% inhibitory concentrations (IC50); each IC50 value is the mean ± standard deviation of at least three separate experiments performed in duplicate.

[4] = tested on: THP-1 (human acute monocytic leukemia cells); assay: cytotoxicity MTT assay on THP-1 differentiated into macrophages; type: cell-based; details: PMA-differentiated macrophages, mean of two experiments in duplicate
Procedure: (§4) The long-term human microvascular endothelial cell line (HMEC-1) was maintained in MCDB 131 medium (Invitrogen, Milan, Italy) supplemented with 10% fetal calf serum (HyClone, Celbio, Milan, Italy), 10 ng/mL of epidermal growth factor,1 µg/ml of hydrocortisone, 2 mM glutamine and 20 mM Hepes buffer (EuroClone). For the cytotoxicity assays, HMEC-1 were plated at 10^5 cells/mL in 96-well flat bottom microplates. THP-1 cells were plated at 5 × 10^5 cells/mL in 96-well flat bottom microplates and treated with 0.1 μM PMA for 48 h to achieve differentiation into macrophages. Cells were then treated with serial dilutions of test compounds and cell proliferation evaluated using the MTT assay described for promastigotes. The results are expressed as IC50, which is the dose of compound necessary to inhibit cell growth by 50%.

[5] = tested on: Pf gametocytes stage V 3D7elo1-pfs16-CBG99; assay: gametocyte susceptibility assay (luciferase viability); type: cell-based, P. falciparum; details: Plasmodium falciparum, 72 h, mean ± SD of three experiments
Procedure: The transgenic P. falciparum 3D7 strain 3D7elo1-pfs16-CBG99 expressing the Pyrophorus plagiophthalamus CBG99 luciferase under a gametocyte specific promoter was used in all the experiments. Parasites were cultured and gametocytes obtained as previously described. Late-stage gametocytes were exposed to compounds at day 11 after N-acetylglucosamine (NAG) addition. Gametocytes stages were counted in Giemsa stained smears and the percentage of stage V gametocytes was higher than 80%. Compounds were prepared by serial dilution, in 96-well plate, in complete medium. Plates were incubated for 72 h at 37 °C under 1% O2, 5% CO2, 94% N2 atmosphere. Luciferase activity was taken as measure of gametocytes viability, as previously described. Briefly, drug-treated gametocyte samples at 2% haematocrit were transferred to 96-well black microplates and D-luciferin (1 mM in citrate buffer 0.1 M, pH 5.5) was added at a 1:1 volume ratio. Luminescence measurements were performed after 10 min with 500 ms integration time using a Sinergy 4 (Biotek) microplate reader. The IC50 was extrapolated from the non-linear regression analysis of the concentration–response curve.

[6] = tested on: P. falciparum W2 (CQ-resistant) strain; assay: antiplasmodial pLDH drug susceptibility assay, asexual parasites, W2 strain; type: cell-based; details: for IC50: Plasmodium falciparum, read-out: W2 IC50; for SI W2: SI = IC50 HMEC-1/IC50 P. falciparum W2
Procedure: as §3

[7] = tested on: HMEC-1 (human microvascular endothelial cells); assay: cytotoxicity MTT assay on HMEC-1; type: cell-based; details: mean ± SD of three experiments in duplicate
Procedure: as §4

[8] = tested on: S. mansoni adult worm pairs; assay: adult worm pair viability assay (phenotypic score); type: cell-based; details: 20 μM, 7 days
Text: (§5) A Puerto Rican strain of S. mansoni was maintained by passage through albino Biomphalaria glabrata, as the intermediate host, and ICR (CD-1) outbred female mice as previously described. Female 4 to 7-week-old mice (Envigo, Udine, Italy) were infected with 200–400 double sex S. mansoni cercariae by the tail immersion technique. Adult pairs were harvested from mice 7–8 weeks after infection by reversed perfusion of the hepatic portal system and mesenteric veins. For the viability assays, 5 couples were incubated with the compounds in 3 mL DMEM complete tissue culture medium containing 10% FBS for up to 7 days and phenotypic score was assigned as previously described. For egg-treatment, 5 worm pairs were incubated for 48 h in 3 mL complete tissue culture medium; next the parasites were removed and vehicle (DMSO) or compounds 1–3 were added to each plate containing the eggs previously laid in vitro and observed for 72 h as previously reported. Briefly, images were recorded with a BX41 Olympus microscope and a bright field objective 10× served by a SPOT RT 220-3 Diagnostic Instrument Inc camera. Egg maturation/morphological score was assigned based on the Vogel and Prata’ staging system of egg maturation.

[9] = tested on: S. mansoni in vitro laid eggs (IVLEs); assay: in vitro laid eggs (IVLEs) maturation/morphology assay; type: cell-based; details: 72 h
Text: as §5

[10] = asexual parasites, CQ-sensitive D10 strain, 72 h, pLDH, mean ± SD of three experiments in duplicate
[11] = asexual parasites, CQ-resistant W2 strain, 72 h, pLDH, mean ± SD of three experiments in duplicate

| Compound | IC50 [1] | IC50 (L. infantum amastigotes) | IC50 [2] | IC50 [3, 10] | SI D10 [3] | IC50 [4] | SIp (L. tropica) [1] | IC50 [5] | SIa (L. infantum amastigotes) | SIa (L. infantum amastigotes; listed as avarol 3) | IC50 [6, 11] | SI W2 [6] | IC50 [7] | SIp (L. infantum) [2] | survival of adult worm pairs [8] | IC50 ([3]; D10, 72 h) | IC50 ([6]; W2, 72 h) | effect on adult stage viability [8] | effect on egg maturation (IVLEs) ([9]; 5 μM) | effect on egg maturation (IVLEs) ([9]; 20 μM) |
| --- | --- | --- | --- | --- | --- | --- | --- | --- | --- | --- | --- | --- | --- | --- | --- | --- | --- | --- | --- | --- |
| C[C@@H]1[C@H](O)[C@@H](C)/C=C/C=C/C=C/C=C/C=C/C=C/C=C/[C@H](O[C@@H]2O[C@H](C)[C@@H](O)[C@H](N)[C@@H]2O)C[C@@H]2O[C@](O)(C[C@@H](O)C[C@@H](O)[C@H](O)CC[C@@H](O)C[C@@H](O)CC(=O)O[C@H]1C)C[C@H](O)[C@H]2C(=O)O [Amphotericin B, reference compound] | 0.17 ± 0.04 µM | 0.189 µM | 0.2 ± 0.03 µM | – | – | – | – | – | – | – | – | – | – | – | – | – | – | – | – | – |
| CC1=CCC[C@H]2[C@](C)(Cc3cc(O)ccc3O)[C@@H](C)CC[C@]12C [Avarol (3), avarol] | 7.08 ± 1.91 µM | 3.19 µM | 7.42 ± 0.27 µM | 0.96 ± 0.24 µM | 38.4 | 31.8 µM | 5.2 | 9.3 ± 1.9 µM | 11.6 | greater than 10 | 1.1 ± 0.15 µM | 33.5 | 36.9 ± 5.79 µM | 5.0 | 20% | – | – | – | – | – |
| CC1=CCC[C@H]2[C@](C)(CC3=CC(=O)C=CC3=O)[C@@H](C)CC[C@]12C [Avarone (1), avarone] | 20.3 ± 3.56 µM | 7.64 µM | 28.2 ± 0.32 µM | 2.74 ± 0.51 µM | 22.7 | > 100 µM | 3.1 | 15.5 ± 5.26 µM | 8.1 | – | 2.09 ± 0.52 µM | 29.8 | 62.2 ± 1.98 µM | 2.2 | – | – | – | – | – | – |
| CC[C@@]1(O)C(=O)OCc2c1cc1n(c2=O)Cc2cc3ccccc3nc2-1 [Camptothecin, reference compound] | – | – | – | – | – | – | – | – | – | – | – | – | 0.018 µM | – | – | – | – | – | – | – |
| CCN(CC)CCCC(C)Nc1ccnc2cc(Cl)ccc12 (stereo not drawn) [Chloroquine (CQ), Chloroquine, reference compound] | – | – | – | – | – | – | – | – | – | – | – | – | – | – | – | 0.04 µM | 0.54 µM | – | – | – |
| CN(C)c1ccc2nc3ccc(=[N+](C)C)cc-3sc2c1 [Methylene blue, reference compound] | – | – | – | – | – | – | – | 0.155 ± 0.05 µM | – | – | – | – | – | – | – | – | – | – | – | – |
| CC1=CCC[C@H]2[C@](C)(CC3=CC(=O)C4=C(C3=O)S(=O)(=O)CCN4)[C@@H](C)CC[C@]12C [Thiazoavarone (2), thiazoavarone] | 9.52 ± 0.32 µM | 4.99 µM | 8.78 ± 0.26 µM | 0.38 ± 0.15 µM | 8.7 | 7.41 µM | 0.35 | 15 ± 3.19 µM | 0.67 | – | 0.21 ± 0.03 µM | 15.8 | 3.31 ± 1.53 µM | 0.38 | – | – | – | poorly effective | impairing eggs maturation | undeveloped and severely damaged eggs |
